This assay concerns the target T1, TNF (TNF-TNFR1 binding) (Homo sapiens, UniProt P01375).
T1 construct: soluble TNF and its receptor TNFR1 in sandwich ELISA; human TNF-alpha (Peprotech) is printed for the cell assays; with Tumor necrosis factor receptor superfamily member 1A
Kind of assay: TNF-TNFR1 sandwich ELISA, inhibition of binding. The conditions noted are these: inhibition of TNF-TNFR1 interaction. On the technique in general: In an ELISA, binding on a coated surface is turned into a signal by an enzyme label.

T1 sequence (P01375 77-233): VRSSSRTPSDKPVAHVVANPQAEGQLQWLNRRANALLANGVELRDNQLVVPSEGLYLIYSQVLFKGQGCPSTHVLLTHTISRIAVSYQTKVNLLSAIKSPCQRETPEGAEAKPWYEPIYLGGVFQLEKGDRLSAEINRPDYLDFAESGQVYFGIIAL
T1 sequence (P19438 30-455 partner): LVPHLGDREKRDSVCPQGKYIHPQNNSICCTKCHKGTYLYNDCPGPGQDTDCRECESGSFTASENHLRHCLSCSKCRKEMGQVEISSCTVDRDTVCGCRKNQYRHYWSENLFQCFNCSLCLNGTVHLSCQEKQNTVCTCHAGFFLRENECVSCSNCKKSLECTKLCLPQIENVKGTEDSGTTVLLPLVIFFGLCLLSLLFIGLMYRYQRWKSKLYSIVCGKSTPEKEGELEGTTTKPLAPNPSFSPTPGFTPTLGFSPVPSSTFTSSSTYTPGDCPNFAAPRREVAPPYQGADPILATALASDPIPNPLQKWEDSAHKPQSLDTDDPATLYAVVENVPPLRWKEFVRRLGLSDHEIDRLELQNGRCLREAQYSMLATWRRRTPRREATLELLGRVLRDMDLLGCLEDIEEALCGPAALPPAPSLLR

One may read the IC50 as the concentration needed to halve the response being measured. The compound `Oc1ccc([C@@H]2c3c(O)cc4c(c3C3C2c2c(c(O)cc5c2[C@H](c2cc(O)cc(O)c2)[C@@H](c2ccc(O)cc2)O5)[C@H]3c2ccccc2)[C@H](c2cc(O)cc(O)c2)[C@@H](c2ccc(O)cc2)C4)cc1` (stereo partly shown) [Nepalensinol B] yielded an IC50 of 90.2 ± 19 µM.

These data come from article PMC8508374, “In Silico Identification and Evaluation of Natural Products as Potential Tumor Necrosis Factor Function Inhibitors Using Advanced Enalos Asclepios KNIME Nodes” (International Journal of Molecular Sciences, 2021).
